Assay results from the NIST ThermoML archive (doi:10.1021/acs.jced.5b00820).
Several values for one entry are separate records, joined by “and”; a condition that tells them apart may be missing. Identical values can stand only once. ± gives the expanded uncertainty stated by the source.

Legend:
[1] = xn = mol fraction of the nth substance listed; settings: 102.2 kPa, Liquid, Vibrating tube method, x2 = 0
[2] = refractive index (Na D-line) (dimensionless); xn = mol fraction of the nth substance listed; settings: 102.2 kPa, Liquid, Standard Abbe refractometry, x2 = 0
[3] = 102.2 kPa, Liquid, Vibrating tube method
[4] = refractive index (Na D-line) (dimensionless); settings: 102.2 kPa, Liquid, Standard Abbe refractometry

Structure (SMILES)	mass density ([1]; 308.15 K) [kg/m3]	mass density ([1]; 313.15 K) [kg/m3]	mass density ([1]; 318.15 K) [kg/m3]	mass density ([1]; 323.15 K) [kg/m3]	mass density ([1]; 328.15 K) [kg/m3]	refractive index ([2]; 308.15 K)	refractive index ([2]; 313.15 K)	refractive index ([2]; 318.15 K)	refractive index ([2]; 323.15 K)	refractive index ([2]; 328.15 K)	mass density ([3]; 308.15 K)	mass density ([3]; 313.15 K)	mass density ([3]; 318.15 K)	mass density ([3]; 323.15 K)	mass density ([3]; 328.15 K)	refractive index ([4]; 308.15 K)	refractive index ([4]; 313.15 K)	refractive index ([4]; 318.15 K)	refractive index ([4]; 323.15 K)	refractive index ([4]; 328.15 K)
C=C[Si]1(C)O[Si](C)(C=C)O[Si](C)(C=C)O[Si](C)(C=C)O1 (stereo not given) [2,4,6,8-tetramethyl-2,4,6,8-tetravinylcycloterasiloxane] + C[Si](C)(O[Si](C)(C)c1ccccc1)c1ccccc1	972.64 ± 0.21	967.49 ± 0.21	962.36 ± 0.21	957.2 ± 0.21	952.03 ± 0.21	1.42751 ± 0.00035	1.42514 ± 0.00035	1.42275 ± 0.00035	1.4204 ± 0.0004	1.41802 ± 0.00035	–	–	–	–	–	–	–	–	–	–
C=C[Si](C)(C)O[Si](C)(C)C=C [1,3-diethenyl-1,1,3,3-tetramethyldisiloxane]	–	–	–	–	–	–	–	–	–	–	797.99 ± 0.23 kg/m3	793.04 ± 0.23 kg/m3	788.05 ± 0.24 kg/m3	783.06 ± 0.24 kg/m3	778.04 ± 0.24 kg/m3	1.40445 ± 0.00036	1.40178 ± 0.00036	1.39912 ± 0.00036	1.39644 ± 0.00036	1.39378 ± 0.00036
C=C[Si]1(C)O[Si](C)(C=C)O[Si](C)(C=C)O[Si](C)(C=C)O1 (stereo not given) [2,4,6,8-tetramethyl-2,4,6,8-tetravinylcycloterasiloxane]	–	–	–	–	–	–	–	–	–	–	972.64 ± 0.21 kg/m3	967.49 ± 0.21 kg/m3	962.36 ± 0.21 kg/m3	957.2 ± 0.21 kg/m3	952.03 ± 0.21 kg/m3	1.42751 ± 0.00035	1.42514 ± 0.00035	1.42275 ± 0.00035	1.4204 ± 0.0004	1.41802 ± 0.00035
C[Si](C)(O[Si](C)(C)c1ccccc1)c1ccccc1 [1,3-diphenyltetramethyldisiloxane]	–	–	–	–	–	–	–	–	–	–	968.05 ± 0.21 kg/m3 and 967.99 ± 0.21 kg/m3 and 967.9 ± 0.21 kg/m3	963.92 ± 0.21 kg/m3 [middle of 4 runs]	959.8 ± 0.21 kg/m3 [middle of 4 runs]	955.69 ± 0.21 kg/m3 [middle of 4 runs]	951.57 ± 0.21 kg/m3 and 951.58 ± 0.21 kg/m3 and 951.65 ± 0.21 kg/m3	1.51064 ± 0.00035 [middle of 4 runs]	1.50832 ± 0.00035 [middle of 4 runs]	1.50605 ± 0.00035 [middle of 4 runs]	1.50377 ± 0.00035 [middle of 4 runs]	1.50144 ± 0.00035 [middle of 4 runs]
C[Si]1(C)O[Si](C)(C)O[Si](C)(C)O[Si](C)(C)O1 [octamethylcyclotetrasiloxane]	–	–	–	–	–	–	–	–	–	–	938.88 ± 0.22 kg/m3	933.06 ± 0.22 kg/m3	927.34 ± 0.22 kg/m3	921.59 ± 0.22 kg/m3	915.8 ± 0.22 kg/m3	1.38924 ± 0.00036	1.38671 ± 0.00036	1.38419 ± 0.00036	1.38168 ± 0.00036	1.37916 ± 0.00036
C[Si]1(C)O[Si](C)(C)O[Si](C)(C)O[Si](C)(C)O1 [octamethylcyclotetrasiloxane] + C[Si](C)(O[Si](C)(C)c1ccccc1)c1ccccc1	938.88 ± 0.22	933.06 ± 0.22	927.34 ± 0.22	921.59 ± 0.22	915.8 ± 0.22	1.38924 ± 0.00036	1.38671 ± 0.00036	1.38419 ± 0.00036	1.38168 ± 0.00036	1.37916 ± 0.00036	–	–	–	–	–	–	–	–	–	–
C[Si]1(CCC(F)(F)F)O[Si](C)(CCC(F)(F)F)O[Si](C)(CCC(F)(F)F)O1 (stereo not given)	–	–	–	–	–	–	–	–	–	–	1236.82 ± 0.23 kg/m3	1230.2 ± 0.23 kg/m3	1223.61 ± 0.23 kg/m3	1217.06 ± 0.23 kg/m3	1210.43 ± 0.23 kg/m3	1.36015 ± 0.00035	1.35814 ± 0.00035	1.35614 ± 0.00035	1.35413 ± 0.00035	1.35215 ± 0.00035
C[Si]1(CCC(F)(F)F)O[Si](C)(CCC(F)(F)F)O[Si](C)(CCC(F)(F)F)O1 (stereo not given) + C[Si](C)(O[Si](C)(C)c1ccccc1)c1ccccc1	1236.82 ± 0.23	1230.2 ± 0.23	1223.61 ± 0.23	1217.06 ± 0.23	1210.43 ± 0.23	1.36015 ± 0.00035	1.35814 ± 0.00035	1.35614 ± 0.00035	1.35413 ± 0.00035	1.35215 ± 0.00035	–	–	–	–	–	–	–	–	–	–
C=C[Si](C)(C)O[Si](C)(C)C=C [1,3-diethenyl-1,1,3,3-tetramethyldisiloxane] + C[Si](C)(O[Si](C)(C)c1ccccc1)c1ccccc1	797.99 ± 0.23	793.04 ± 0.23	788.05 ± 0.24	783.06 ± 0.24	778.04 ± 0.24	1.40445 ± 0.00036	1.40178 ± 0.00036	1.39912 ± 0.00036	1.39644 ± 0.00036	1.39378 ± 0.00036	–	–	–	–	–	–	–	–	–	–
